From US7763585B2, “Methods for inhibiting tumor cell proliferation” (priority 2003, dated 2010)

Columns and labels:
[1] = system: Stat5; assay: EMSA, Stat5 DNA-binding activity in vitro (MGFe probe); assay type: biochemical, mouse; details: FIG. 1B
Experimental: (§1) FIGS. 1A-D are photographs showing EMSA analyses of DNA-binding activities and effects of platinum complexes. Nuclear extracts containing activated Stat1, Stat3 and Stat5 are treated with the indicated concentrations of platinum complex ISSCPA-1, ISSCPA-3, ISSCPA-7, or PtCl4 for 30 min at room temperature prior to incubation with radiolabeled oligonucleotide probes. […] Positions of complexes of DNA with STAT, E2F1 or NFκB (p65, p50) in gel are labeled. Control lanes represent nuclear extracts that are not pre-incubated with platinum complexes.
(§2) Nuclear extracts were prepared from cell lines and used for EMSA as previously described (Turkson et al., 1998; Yu et al., 1995; Garcia et al., 1997). In some cases, cells were pre-treated with platinum complexes for the indicated times prior to harvesting. Where cells were stimulated with EGF (6 ng/ml), duration of treatment was 15 min. Nuclear extracts were pre-incubated with compounds for 30 min at room temperature prior to incubation with radiolabeled probe. The ^32P-radiolabeled oligonucleotide probes used are hSIE (high affinity sis-inducible element, m67 variant, 5′-[…]-3′) (SEQ ID NO:1) that binds both Stat1 and Stat3 (Garcia et al., 1997; Wagner et al., 1990), MGFe (mammary gland factor element from the bovine β-casein gene promoter, 5′-AGATTTCTAGGAATTCAA-3′) (SEQ ID NO:2) that binds Stat1 and Stat5 (Gouilleux et al., 1995; Seidel et al., 1995), the NF-κB binding oligo (5′-[…]-3′) (SEQ ID NO:3), and the oligonucleotide sequence from the DHFR promoter that binds E2F1.
(§3) Platinum compounds were evaluated for inhibitory activity against STAT DNA-binding in vitro.

[2] = biological target: T1, Stat1:Stat3 (Mus musculus, UniProt P42225+P42227); assay: EMSA, disruption of Stat1:Stat3 DNA-binding activity in vitro (hSIE probe); assay type: biochemical
T1 construct: endogenous in cells; host or cells: EGF-stimulated fibroblasts (nuclear extract)
Experimental: as §1, §2, §3

[3] = biological target: T2, Stat1:Stat1 (Mus musculus, UniProt P42225); assay: EMSA, disruption of Stat1:Stat1 DNA-binding activity in vitro (hSIE probe); assay type: biochemical
T2 construct: endogenous in cells; host or cells: EGF-stimulated fibroblasts (nuclear extract)
T2 sequence (P42225 2-749 limits assumed): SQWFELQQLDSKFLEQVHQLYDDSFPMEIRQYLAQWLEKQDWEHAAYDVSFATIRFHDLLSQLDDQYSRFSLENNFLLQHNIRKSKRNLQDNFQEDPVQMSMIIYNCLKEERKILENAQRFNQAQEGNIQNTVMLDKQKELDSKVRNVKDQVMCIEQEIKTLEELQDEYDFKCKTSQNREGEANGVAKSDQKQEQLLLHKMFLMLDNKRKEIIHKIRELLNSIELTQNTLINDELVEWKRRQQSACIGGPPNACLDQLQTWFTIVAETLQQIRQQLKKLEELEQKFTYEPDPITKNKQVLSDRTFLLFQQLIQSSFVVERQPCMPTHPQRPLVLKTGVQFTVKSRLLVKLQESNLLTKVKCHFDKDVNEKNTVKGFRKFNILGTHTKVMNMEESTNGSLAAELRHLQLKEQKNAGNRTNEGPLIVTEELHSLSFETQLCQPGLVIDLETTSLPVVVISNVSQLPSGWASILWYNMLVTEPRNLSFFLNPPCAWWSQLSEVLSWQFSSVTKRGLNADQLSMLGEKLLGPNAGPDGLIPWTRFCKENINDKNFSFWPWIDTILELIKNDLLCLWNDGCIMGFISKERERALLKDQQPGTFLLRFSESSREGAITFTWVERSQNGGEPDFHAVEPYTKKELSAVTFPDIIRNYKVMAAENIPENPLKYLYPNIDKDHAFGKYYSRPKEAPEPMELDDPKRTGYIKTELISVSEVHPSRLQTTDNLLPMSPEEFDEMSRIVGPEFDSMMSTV
Experimental: as §1, §2, §3

[4] = biological target: T3, Stat3:Stat3 (Mus musculus, UniProt P42227); assay: EMSA, disruption of Stat3:Stat3 DNA-binding activity in vitro (hSIE probe); assay type: biochemical; details: for Level of DNA-binding activity of Stat3 (EMSA): EGF-stimulated fibroblast nuclear extracts, 30 min preincubation, FIG. 1A
T3 construct: endogenous in cells; host or cells: EGF-stimulated fibroblasts (nuclear extract)
Experimental: as §1, §2, §3

[5] = system: Stat3; assay: EMSA of nuclear extracts from treated cells with constitutively-activated Stat3; assay type: cell-based, mouse and human; details: Src-transformed fibroblasts and human tumor cells, FIG. 3
Experimental: FIG. 3 is a photograph showing the evaluation of effects of platinum complexes on Stat3 activation analyzed by EMSA. Nuclear extracts prepared from malignant cells that contain constitutively-activated Stat3 and treated with platinum complexes for the indicated times were analyzed by EMSA using hSIE oligonucleotide probe. Extracts were prepared from v-Src-transformed NIH3T3/v-Src; human breast carcinoma MDA-MB-231; MDA-MB-435; and […]. Position of Stat3:DNA complex in gel is shown.
as §2, with “5′-[…]-3′)” for “5′-AGATTTCTAGGAATTCAA-3′)”
The effects of platinum complexes on persistent activation of Stat3 in Src-transformed fibroblasts and human tumor cells were investigated. […] These studies were then extended to evaluate the effects of the platinum complexes on Stat3 transcriptional activity.

[6] = system: CT26 colon tumors; assay: Mouse model of colon tumor, intra-tumoral injection; assay type: in vivo; details: direct intra-tumoral injection, monitored up to 9 days, FIG. 8
Experimental: (§4) FIGS. 8A-C show tumor regression induced by platinum (IV) chloride. Tumor models in mice using B16 melanoma and CT26 colon tumors both of which harbor constitutively-active Stat3 were treated by intra-tumoral injection with doses of platinum (IV) chloride and tumor sizes monitored every other day for up to 9 days. FIG. 8A is a photograph showing extracted tumor tissues were analyzed for Stat3 activity in in vitro DNA-binding assays and EMSA analysis. FIG. 8B and FIG. 8C show tumor sizes monitored by calipers plotted against days of treatment.
(§5) The antitumor efficacy of platinum (IV) chloride of the invention using mouse models of melanoma and colon tumors was evaluated. Established tumors were directly injected with doses of platinum (IV) chloride and tumor size subsequently monitored. […] In parallel studies, treated tumors were extracted and Stat3 activity determined on the basis of DNA-binding activity analyzed by EMSA. […] Together, the findings support inhibition of constitutively-active STATs by platinum (IV) chloride leads to regression of melanoma and colon tumors.

[7] = biological target: T4, Stat3 (Mus musculus, UniProt P42227); assay: Stat3 DNA-binding activity (EMSA) in extracted treated tumors; assay type: in vivo; details: FIG. 8A
T4 construct: from tissue; host or cells: extracted B16 melanoma / CT26 colon tumour tissue from mice
Experimental: as §4, §5

[8] = system: B16 melanoma; assay: Mouse model of melanoma tumor, intra-tumoral injection; assay type: in vivo; details: direct intra-tumoral injection, monitored up to 9 days, FIG. 8
Experimental: as §4, §5

T3 sequence (P42227 2-770 limits assumed): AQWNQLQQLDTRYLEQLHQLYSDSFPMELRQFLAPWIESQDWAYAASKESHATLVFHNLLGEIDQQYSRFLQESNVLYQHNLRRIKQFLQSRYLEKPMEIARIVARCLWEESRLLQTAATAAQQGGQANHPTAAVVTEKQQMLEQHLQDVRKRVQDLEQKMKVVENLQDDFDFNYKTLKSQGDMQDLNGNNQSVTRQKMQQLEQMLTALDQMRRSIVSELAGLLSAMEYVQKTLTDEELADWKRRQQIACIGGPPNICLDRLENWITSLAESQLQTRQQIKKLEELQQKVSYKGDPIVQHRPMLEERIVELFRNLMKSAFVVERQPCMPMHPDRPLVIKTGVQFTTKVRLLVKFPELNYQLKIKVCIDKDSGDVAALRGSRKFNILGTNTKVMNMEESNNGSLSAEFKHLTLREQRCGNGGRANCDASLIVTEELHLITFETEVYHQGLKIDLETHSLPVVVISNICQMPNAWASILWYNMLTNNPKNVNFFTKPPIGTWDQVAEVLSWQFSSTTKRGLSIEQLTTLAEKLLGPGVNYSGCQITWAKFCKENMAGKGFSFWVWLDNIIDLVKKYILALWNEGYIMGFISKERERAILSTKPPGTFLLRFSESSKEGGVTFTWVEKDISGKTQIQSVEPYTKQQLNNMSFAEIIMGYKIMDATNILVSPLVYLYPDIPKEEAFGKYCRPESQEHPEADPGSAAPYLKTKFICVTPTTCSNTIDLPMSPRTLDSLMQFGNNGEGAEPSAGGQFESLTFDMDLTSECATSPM
T4 sequence (P42227 whole entry): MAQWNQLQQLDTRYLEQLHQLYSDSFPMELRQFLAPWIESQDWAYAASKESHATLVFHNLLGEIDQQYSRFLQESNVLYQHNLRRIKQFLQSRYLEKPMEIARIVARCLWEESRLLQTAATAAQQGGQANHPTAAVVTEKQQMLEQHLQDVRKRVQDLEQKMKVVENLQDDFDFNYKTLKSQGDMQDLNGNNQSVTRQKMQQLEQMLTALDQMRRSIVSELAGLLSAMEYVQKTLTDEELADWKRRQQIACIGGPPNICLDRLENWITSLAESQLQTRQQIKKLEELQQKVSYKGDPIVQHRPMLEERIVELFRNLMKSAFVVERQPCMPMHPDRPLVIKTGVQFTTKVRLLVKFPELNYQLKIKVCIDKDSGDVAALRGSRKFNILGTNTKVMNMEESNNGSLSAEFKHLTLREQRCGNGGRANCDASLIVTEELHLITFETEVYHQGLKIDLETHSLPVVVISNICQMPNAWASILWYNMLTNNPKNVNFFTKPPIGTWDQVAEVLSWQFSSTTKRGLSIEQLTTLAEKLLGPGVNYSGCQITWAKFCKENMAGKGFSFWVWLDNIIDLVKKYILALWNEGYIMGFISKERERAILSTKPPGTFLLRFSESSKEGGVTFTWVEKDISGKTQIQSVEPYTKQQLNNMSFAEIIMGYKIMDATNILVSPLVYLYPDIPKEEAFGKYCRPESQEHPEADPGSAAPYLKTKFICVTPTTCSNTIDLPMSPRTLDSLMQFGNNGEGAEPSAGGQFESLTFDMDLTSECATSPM
T1 sequence (P42227 2-770 limits assumed, one chain of several): as the sequence (P42227 2-770 limits assumed) above

Row | SMILES | Inhibitory effect on Stat5 DNA-binding activity (EMSA) [1] | IC50 [2] | IC50 [3] | Level of DNA-binding activity of Stat1 (EMSA) ([3]; EGF-stimulated fibroblast nuclear extracts, 30 min preincubation, hSIE probe, FIG. 1A) | Level of DNA-binding activity of Stat3 (EMSA) [4] | IC50 ([4]; nuclear extracts pre-incubated 30 min at room temperature, read-out: IC50 for disruption of STAT DNA-binding activity in vitro, Stat3:Stat3) | Inhibition of constitutive Stat3 activation in treated cells (EMSA of nuclear extracts) [5] | Tumor size, colon tumors [6] | Constitutively-active Stat3 in treated tumors (DNA-binding activity by EMSA) [7] | Tumor size, melanoma tumors [8]
1 | [Cl][Pt]1([Cl])[NH]CC[NH]1 [ISS CPA-3] | much reduced inhibitory effect | 27 µM | 8.3 µM | dose-dependent reduction | dose-dependent reduction | 5.8 µM | modest or negligible |  |  | 
2 | N.N.[Cl][Pt][Cl] [Cisplatin, reference compound] |  |  |  |  |  |  | modest or negligible |  |  | 
3 | [Cl][Pt]([Cl])([Cl])[Cl] [platinum (IV) chloride] |  |  |  |  | disrupts DNA-binding activity of Stat3 |  |  | complete regression | strongly attenuated | complete regression
